Assay results published in publication PMC12216609, “Inhibitors of eIF1A-ribosome interaction unveil uORF-dependent regulation of translation initiation and antitumor and antiviral effects” (The EMBO Journal, 2025).
“And” between values parts separate entries of the source, which are not always exact repeats. Equal values may be shown once.

Experiments:
[1] = test system: CUG/GUG vs AUG start codon luciferase reporters in HEK293T cells; assay: Near-cognate AUG starting codon fidelity reporter assay (GUG, CUG vs AUG); type: cell-based; conditions: for CUG vs AUG (%): CUG start codon reporter relative to AUG reporter (AUG = 100); for CUG vs AUG (%) / GUG vs AUG (%): compound at 20uM (summary head), single-experiment calculation; for GUG vs AUG (%): GUG start codon reporter relative to AUG reporter (AUG = 100); for GUG vs AUG data (%) / GUG vs AUG (%) Average: compound at 20uM; for GUG vs AUG data (%): individual repeat; for GUG vs AUG (%) Average: summary average of repeats, DMSO control average […]
Description: We next considered the importance of eIF1A in controlling start codon fidelity in yeast and mammalian cells (Martin-Marcos et al, [2011]; Martin-Marcos et al, [2017]; Sehrawat et al, [2019]; She et al, [2023]) and tested how inhibition of eIF1A by 1Ais affects the initiation from near-cognate AUG. The effect of 1Ais was analyzed using firefly luciferase reporters bearing either AUG (control), CUG, or GUG as the exclusive translation initiation sites. Co-transfected GFP reporter served as an internal control for transfection efficiency.
For the near-cognate AUG Starting codon fidelity reporter assay, HEK293T cells were transfected with 100 ng of the previously described luciferase reporter constructs driven either by AUG, CUG, and GUG (Tang et al, [2017]) together with GFP expressing plasmid (20 ng) as normalizing control. Luciferase and GFP levels were determined as described above.
Appendix Figure S1: (A) HEK293T cells were transfected with Luciferase reporter genes with either CUG or AUG as their exclusive starting codon. 6 hours after transfection, cells were exposed to 1Ais, and the luminescence from all constructs was measured after overnight incubation. Bars represent the ratio between luminescence from the AUG starting codon and CUG after normalization with co-transfected GFP; Error bars represent SEM, * denotes p<0.05 (T-test comparing to DMSO control), n=≥4 independent biological replicates.

[2] = test system: IRF7 5'UTR firefly luciferase reporter in HEK293T cells; conditions: for LONG (summary - All), normalized to DMSO: Long reporter; for LONG (summary - All), normalized to DMSO / SHORT (summary - All), normalized to DMSO / average ( long vs short ratio): 20 µM; for LONG (summary - All), normalized to DMSO / SHORT (summary - All), normalized to DMSO: individual replicates, outliers excluded, DMSO = 1; for SHORT (summary - All), normalized to DMSO: Short reporter; for average ( long vs short ratio): summary - All;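 as to all read-outs here: luciferase signal corrected by a co-transfected GFP reporter for transfection efficiency, read after overnight compound exposure, with Long and Short reporters differing in 5'UTR length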
Description: For the effect on ribosomal scanning, we used two firefly luciferase reporter genes that differ in their 5'UTR length (Fig. 1C). […] Cells were transfected with these reporters along with a GFP reporter gene used to normalize transfection efficiency. After an overnight 1Ai or DMSO (vehicle control) exposure, luciferase and GFP expression were measured, and normalized activity was determined.
For the reference vs IRF7 5'UTR luciferase reporter assay, HEK239T cells in a 12-well plate were transfected with the previously described IRF7 5'UTR or reference firefly luciferase reported genes (Sehrawat et al, [2019]) (100 ng/well) together with GFP (20 ng/well) that served as an internal control by CaCl2 transfection. After 6 h, half of the growth medium was replaced with a medium containing the different compounds, reaching a final concentration of 20 µM. Twenty-four hours after transfection, transfection efficiency was evaluated using GFP fluorescence intensity (Cytation 5, ex/em: 470/525). Cells were harvested in 50 µL Reported lysis buffer (RLB) and put on a shaker for 10 min. From each well 5 µL were taken in duplicates and tested by luminometer.

eIF1A-RPS10 interaction = target: T1, eIF1A-RPS10 interaction (Homo sapiens, UniProt P46783+P47813); assay: Split-Renilla luciferase eIF1A-RPS10 interaction screen, dose-response; type: biochemical; conditions: Appendix Table S1; read-out: IC50 from the split RL screen
T1 construct: made in house; host or cells: E. coli BL21 (PRSFduet); unpurified lysate supernatant
T1 sequence (P47813 whole entry, one chain of several): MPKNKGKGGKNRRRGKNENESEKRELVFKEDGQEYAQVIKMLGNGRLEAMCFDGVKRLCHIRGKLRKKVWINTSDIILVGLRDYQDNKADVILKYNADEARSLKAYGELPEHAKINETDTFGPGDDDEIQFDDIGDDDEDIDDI
Description: While knockdown (KD) studies of eIF1A provided valuable insights into its role in mammalian cell translation (Sehrawat et al, [2019]), this approach presents several limitations. First, it fails to elucidate the functional significance of the opposing functions of eIF1A N- and C-terminal tails with respect to scanning and start codon fidelity. Second, the extended duration required for achieving efficient knockdown, 48–72 h, impairs our ability to differentiate between direct and indirect effects. To overcome these constraints, we set out to develop small-molecule inhibitors targeting eIF1A. Guided by structural and biochemical studies showing eIF1A binding to the small ribosomal subunit at the A-site and interacting directly with RPS10 through its N-terminal tail (Haimov et al, [2017]; Passmore et al, [2007]; Sehrawat et al, [2019]), our approach focused on disrupting the interaction between eIF1A and RPS10. […] The interaction between eIF1A and RPS10 brings the two parts together, leading to the reconstitution of the enzymatic activity (Haimov et al, [2017]). In this system, the spatial arrangement of the two RL parts is critical for the enzymatic activity, making it sensitive not only to direct interference with the interacting proteins but also to changes in the conformation of the fused proteins. In the eIF1A-RPS10 split-RL pair, the C-terminus of eIF1A is fused to N-RL (Fig. 1A), in order to maintain the NTT accessible to RPS10 binding. This pair was cloned and expressed in bacteria as recombinant proteins and used to screen a library of ~50,000 small molecules from diverse sources (Ashkenazi et al, [2017]).
eIF1A-ΔC-Renilla and RPS10-ΔN-Renilla were transformed into BL21 E. coli by heat shock transformation. A bacterial starter of 5 ml LB was incubated overnight at 37 °C and transferred into 1 L LB for incubation at 37 °C until OD ~ 0.5–0.7. Next, protein expression was induced with 0.5 mM IPTG, and bacterial cells were incubated overnight at 16 °C. Bacterial cell pellet was collected after centrifugation (3000 RPM, 15 min), resuspended in 20 ml TKE buffer (Tris 10 mM, KCl 100 mM, EDTA 0.1 mM), sonicated (bath sonicator, 24 cycles of 30 s) and centrifuged again (15000 RPM, 30 min). Supernatants were collected, analyzed for RL activity, and then used for high throughput drug screen (HTS) at the Weizmann G-INCPM HTS unit as described (Ashkenazi et al, [2017]). In addition to the standard controls of this protocol, the two parts of the split RL, without eIF1A or RPS10, were tested as controls. Selected compounds were purchased from Sigma-Aldrich and Enamine. Compound powders were resuspended in DMSO for a final concentration of 10 mM and stored at −20 °C.

[3] = test system: cap-proximal AUG GFP reporter in HEK293T cells; type: cell-based; conditions: GFP WB densitometry; 20 µM overnight; dmso 0.965946
Source text: Translation from an AUG preceded by a very short 5'UTR (less than 30 nt) is usually inefficient and frequently bypassed, resulting in initiation from a downstream AUG, a phenomenon known as leaky scanning. […] To examine the impact of 1Ais on short 5'UTR initiation, we used a GFP reporter gene containing an AUG located 16 nt downstream from the 5' end followed by a second in-frame downstream AUG (Fig. 1F; Appendix Fig. S1B). Cells were transfected with this GFP reporter gene followed by exposure to DMSO (vehicle) and 1Ais. Initiations from upstream (US) or downstream (DS) AUGs were determined by western blot (WB) with anti-GFP antibodies and the ratio between the US and DS AUG was determined.
For the analysis of translation from very short 5'UTR and Leaky scanning, HEK293T cells were transfected with a GFP (20 ng/well) reporter gene driven by a cap-proximal and downstream AUGs (Elfakess et al, [2011]) together with a luciferase reporter gene (100 ng/well) as normalizing control and treated with 20 µM of 1Ais as described above. GFP levels were determined by Western blot (WB) (GFP antibody, Abcam #ab290) and quantified by densitometry (ImageJ) and normalized to the measured luciferase activity.
HEK293T cells were transfected with the GFP reporter gene schematically shown on the top. The first
AUG is […] from the 5’ end and the downstream AUG is in the same frame. Six hours after transfection, cells were treated with 1Ais. After overnight exposure to 1Ais, GFP expression was analyzed by WB using anti -GFP antibodies.
US/DS ratio was determined by densitometry and represents the long protein expression (upstream AUG, US) vs the […]
biological replicates. (C-D) Analysis of reporter genes mRNA levels after 1Ais treatment.

Compound	CUG vs AUG (%) [1]	GUG vs AUG (%) [1]	LONG (summary - All), normalized to DMSO [2]	SHORT (summary - All), normalized to DMSO [2]	average ( long vs short ratio) [2]	IC50 (eIF1A-RPS10 interaction)	GUG vs AUG data (%) [1]	GUG vs AUG (%) Average [1]	US/DS ratio, average [3]	Long 5'UTR reporter luciferase activity, normalized to DMSO (=1), single replicates ([2]; compound at 20 µM, left data block (Long), source data of Fig 1C)
CNc1nc(-c2cc(C)n(C)c2C)cs1 [compound 153]	5.937%	1.586%								
COC(=O)C1=C(C)NC2=C(C(=O)CC(c3ccc(F)cc3)C2)C1c1ccc(N(C)C)cc1Cl (stereo not drawn) [1Ai-9162]	9.614%	2.083%	0.54 and 0.53 and 0.27 and 0.64	0.54 and 0.47 and 0.46	1.009	16 µM	2.05% and 2.20% and 2.48% and 2.61%	2.33%	0.9825	
CNc1nc(-c2cc(C)n(C)c2C)cs1 [1Ai-0153]			0.73 and 0.87 and 1.53 and 0.96 and 1.14	0.72 and 0.98 and 1.54 and 1.66 and 1.69 and 1.65	0.762	27 µM	1.78% and 1.33% and 1.95% and 1.92%	1.74%		0.734 and 0.8747 and 1.529 and 0.9608 and 2.673 and 1.141
